Key:
gustducin α subunit = test: Trypsin sensitivity assay of gustducin α subunit activation by denatonium-stimulated taste membranes; format: biochemical
Protocol: To confirm this idea, yet another trypsin sensitivity assay was utilized.
Five μl aliquots of in vitro translated gustducin α subunit were incubated with 5 μg of purified taste membranes or control non-taste membranes, 0.1 mM GDP, 1 μM GTPγS, with or without 5 mM of the bitter compound denatonium, plus a 10 μl aliquot of cotranslated β1/gustducin γ subunit or β2/γ2 dimer, or 10 μl rabbit reticulocyte lysate (the minus βγ control) for 1 hour at 30° C., followed by digestion with trypsin as described in Ming et al., Proc. Natl. Acad. Sci. USA, 95: 8933–8938 (1998).

murine taste tissue [1] = conditions: shown previously; cited from earlier work
murine taste tissue [2] = test: Rapid time course quench-flow IP3 generation in murine taste tissue; format: biochemical, mouse; conditions: addition to murine taste tissue homogenate supernatant
Protocol: To confirm that gustducin γ subunit does indeed function in taste transduction rapid time course quench-flow experiments were carried out essentially as described in Tarelius et al., pp. 193–202 in Spielman et al., Eds., Experimental Cell Biology of Taste and Olfaction. Current Techniques & Protocols, CRC Press, Boca Raton (1995). […] Furthermore, it has been shown that the denatonium response depends upon a novel phospholipase C (PLC) β2 isotype specifically expressed in taste receptor cells.
Tongues were excised from 6 to 8 week old female SWR mice, and lingual papillae removed. One vallate and two foliate papillae and nongustatory control tissue from the dorsal eminence of the peeled epithelium were placed in ice-cold MOPS buffer pH 6.9 (50 mM MOPS, 100 mM NaCl, 0.081 mM CaCl2 and 2.5 mM MgCl2), containing 10 mM EGTA, 1 mM DTT, and a protease inhibitor cocktail [1 mg/ml, specific for serine, cysteine, aspartic and metallo-proteinases (Sigma)]. Tissue collected from twenty-five tongues was homogenized in MOPS-EGTA buffer pH 6.9, without the enzyme inhibitors, and centrifuged (1000×g for 20 min. at 4° C.). The recovered supernatant (at a protein concentration of about 30 μg/ml), was used for rapid kinetic experiments. […]

[3] = taste receptor-containing membranes stimulated by 5 mM denatonium

| Compound | enhancement of activation of gustducin α subunit (gustducin α subunit; control non-taste membranes) | enhancement of activation of gustducin α subunit (gustducin α subunit; [3]) | generation of IP3 in control non-taste tissue (murine taste tissue [1]) | generation of IP3 relative to basal level (murine taste tissue [2]) |
| --- | --- | --- | --- | --- |
| β1/gustducin γ subunit: cotranslated β1/gustducin γ subunit dimer | did not enhance activation | enhanced activation |  |  |
| CC[N+](CC)(CC(=O)Nc1c(C)cccc1C)Cc1ccccc1 [denatonium benzoate] |  |  | not in control non-taste tissue | slightly more than twice the basal level |
| CC(=O)OC[C@H]1O[C@@](COC(C)=O)(O[C@H]2O[C@H](COC(C)=O)[C@@H](OC(C)=O)[C@H](OC(C)=O)[C@H]2OC(C)=O)[C@@H](OC(C)=O)[C@@H]1OC(C)=O [sucrose octa-acetate] |  |  | not in control non-taste tissue |  |
| β2/γ2: cotranslated β2/γ2 dimer [reference compound] |  | did not enhance activation |  |  |

Reference: patent US7314716B2, “Gustducin γ subunit materials and methods” (Mount Sinai School of Medicine, priority 1999, dated 2008)
